Measured values published in patent US11717508B2, “Compounds, compositions, and methods for inhibiting bacterial growth” (priority 2016, dated 2023).

Tested on: DosRST regulon
Type: cell-based
[1] = Rv2626c, WT Mtb treated with HC102A compared to DMSO
[2] = Rv2627c, WT Mtb treated with HC102A compared to DMSO
[3] = Rv2628, WT Mtb treated with HC102A compared to DMSO
[4] = Rv2629, WT Mtb treated with HC102A compared to DMSO
[5] = Rv2630, WT Mtb treated with HC102A compared to DMSO
[6] = Rv2631, WT Mtb treated with HC102A compared to DMSO
[7] = Rv3083, WT Mtb treated with HC102A compared to DMSO
[8] = Rv3084 lipR, WT Mtb treated with HC102A compared to DMSO
[9] = Rv3085, WT Mtb treated with HC102A compared to DMSO
[10] = Rv3127, WT Mtb treated with HC102A compared to DMSO
[11] = Rv3130c, WT Mtb treated with HC102A compared to DMSO
[12] = Rv3131, WT Mtb treated with HC102A compared to DMSO
[13] = Rv3132c, WT Mtb treated with HC102A compared to DMSO
[14] = Rv3133c, WT Mtb treated with HC102A compared to DMSO

## C[C@@H]1CC(C)(C)C[C@]2(C1)NC(=O)NC2=O (racemic) [HC102A, 7,7,9-trimethyl-1,3-diazaspiro[4.5]decane-2,4-dione]
Rv2625c, WT Mtb treated with HC102A compared to DMSO
  log2 Fold change, gene MT2700: −5.149
Rv2625c, WT Mtb treated with HC102A, replicate 1
  Counts per million (CPM) WT_HC102A1, gene MT2700: 146.1 CPM
Rv2625c, WT Mtb treated with HC102A, replicate 2
  Counts per million (CPM) WT_HC102A2, gene MT2700: 111.9 CPM
[1]
  Fold change, gene MT2701: 0.04398
  log2 Fold change, gene MT2701: −4.507
Rv2626c, WT Mtb treated with HC102A, replicate 1
  Counts per million (CPM) WT_HC102A1, gene MT2701: 447.5 CPM
Rv2626c, WT Mtb treated with HC102A, replicate 2
  Counts per million (CPM) WT_HC102A2, gene MT2701: 554.5 CPM
[2]
  Fold change, gene MT2702: 0.01981
  log2 Fold change, gene MT2702: −5.658
Rv2627c, WT Mtb treated with HC102A, replicate 1
  Counts per million (CPM) WT_HC102A1, gene MT2702: 101.3 CPM
Rv2627c, WT Mtb treated with HC102A, replicate 2
  Counts per million (CPM) WT_HC102A2, gene MT2702: 156.7 CPM
[3]
  Fold change, gene MT2703: 0.03499
  log2 Fold change, gene MT2703: −4.837
Rv2628, WT Mtb treated with HC102A, replicate 1
  Counts per million (CPM) WT_HC102A1, gene MT2703: 20.64 CPM
Rv2628, WT Mtb treated with HC102A, replicate 2
  Counts per million (CPM) WT_HC102A2, gene MT2703: 33.42 CPM
[4]
  Fold change, gene MT2704: 0.09873
  log2 Fold change, gene MT2704: −3.34
Rv2629, WT Mtb treated with HC102A, replicate 1
  Counts per million (CPM) WT_HC102A1, gene MT2704: 540.6 CPM
Rv2629, WT Mtb treated with HC102A, replicate 2
  Counts per million (CPM) WT_HC102A2, gene MT2704: 660.1 CPM
[5]
  Fold change, gene MT2705: 0.0994
  log2 Fold change, gene MT2705: −3.331
Rv2630, WT Mtb treated with HC102A, replicate 1
  Counts per million (CPM) WT_HC102A1, gene MT2705: 71.28 CPM
Rv2630, WT Mtb treated with HC102A, replicate 2
  Counts per million (CPM) WT_HC102A2, gene MT2705: 56.05 CPM
[6]
  Fold change, gene MT2707: 0.1179
  log2 Fold change, gene MT2707: −3.085
Rv2631, WT Mtb treated with HC102A, replicate 1
  Counts per million (CPM) WT_HC102A1, gene MT2707: 110.9 CPM
Rv2631, WT Mtb treated with HC102A, replicate 2
  Counts per million (CPM) WT_HC102A2, gene MT2707: 72.59 CPM
[7]
  Fold change, gene MT3168: 0.2851
  log2 Fold change, gene MT3168: −1.81
Rv3083, WT Mtb treated with HC102A, replicate 1
  Counts per million (CPM) WT_HC102A1, gene MT3168: 100.3 CPM
Rv3083, WT Mtb treated with HC102A, replicate 2
  Counts per million (CPM) WT_HC102A2, gene MT3168: 66.84 CPM
[8]
  Fold change, gene MT3169: 0.2724
  log2 Fold change, gene MT3169: −1.876
Rv3084 lipR, WT Mtb treated with HC102A, replicate 1
  Counts per million (CPM) WT_HC102A1, gene MT3169: 16.74 CPM
Rv3084 lipR, WT Mtb treated with HC102A, replicate 2
  Counts per million (CPM) WT_HC102A2, gene MT3169: 9.205 CPM
[9]
  Fold change, gene MT3170: 0.3224
  log2 Fold change, gene MT3170: −1.633
Rv3085, WT Mtb treated with HC102A, replicate 1
  Counts per million (CPM) WT_HC102A1, gene MT3170: 11.79 CPM
Rv3085, WT Mtb treated with HC102A, replicate 2
  Counts per million (CPM) WT_HC102A2, gene MT3170: 8.619 CPM
[10]
  Fold change, gene MT3212: 0.0633
  log2 Fold change, gene MT3212: −3.982
Rv3127, WT Mtb treated with HC102A, replicate 1
  Counts per million (CPM) WT_HC102A1, gene MT3212: 690.1 CPM
Rv3127, WT Mtb treated with HC102A, replicate 2
  Counts per million (CPM) WT_HC102A2, gene MT3212: 898.2 CPM
[11]
  Fold change, gene MT3216: 0.05498
  log2 Fold change, gene MT3216: −4.185
Rv3130c, WT Mtb treated with HC102A, replicate 1
  Counts per million (CPM) WT_HC102A1, gene MT3216: 1,395.93 CPM
Rv3130c, WT Mtb treated with HC102A, replicate 2
  Counts per million (CPM) WT_HC102A2, gene MT3216: 1,787.99 CPM
[12]
  Fold change, gene MT3217: 0.03013
  log2 Fold change, gene MT3217: −5.053
Rv3131, WT Mtb treated with HC102A, replicate 1
  Counts per million (CPM) WT_HC102A1, gene MT3217: 415.6 CPM
Rv3131, WT Mtb treated with HC102A, replicate 2
  Counts per million (CPM) WT_HC102A2, gene MT3217: 421.7 CPM
[13]
  Fold change, gene MT3218: 0.0994
  log2 Fold change, gene MT3218: −3.331
Rv3132c, WT Mtb treated with HC102A, replicate 1
  Counts per million (CPM) WT_HC102A1, gene MT3218: 439 CPM
Rv3132c, WT Mtb treated with HC102A, replicate 2
  Counts per million (CPM) WT_HC102A2, gene MT3218: 364.8 CPM
[14]
  Fold change, gene MT3219: 0.07283
  log2 Fold change, gene MT3219: −3.779
